Assay results reported in patent US11447475B2, “Isoxazole N-linked carbamoyl cyclohexyl acids as LPA antagonists” (BRISTOL-MYERS SQUIBB COMPANY, priority 2017, dated 2022).
pIC50: −log10 of the molar value. Where two headings read alike, the source gives them in different places.

Target: T1, human LPA1 (Homo sapiens, UniProt Q92633)
T1 construct: expressed in transfected cells; host or cells: Chinese hamster ovary (CHO) cells
Test: LPA1 functional antagonist assay (calcium flux)
Assay type: cell-based
Conditions: read-out: hLPA1 IC50
Protocol: The effectiveness of compounds of the present invention as LPA1 inhibitors can be determined in an LPA1 functional antagonist assay as follows:
Chinese hamster ovary cells overexpressing human LPA1 were plated overnight (15,000 cells/well) in poly-D-lysine coated 384-well microplates (Greiner bio-one, Cat #781946) in DMEM/F12 medium (Gibco, Cat #11039). Following overnight culture, cells were loaded with calcium indicator dye (AAT Bioquest Inc, Cat #34601) for 30 minutes at 37° C. The cells were then equilibrated to room temperature for 30 minutes before the assay. Test compounds solubilized in DMSO were transferred to 384 well non-binding surface plates (Corning, Cat #3575) using the Labcyte Echo acoustic dispense and diluted with assay buffer [1×HBSS with calcium/magnesium (Gibco Cat #14025-092), 20 mM HEPES (Gibco Cat #15630-080) and 0.1% fatty acid free BSA (Sigma Cat #A9205)] to a final concentration of 0.5% DMSO. Diluted compounds were added to the cells by FDSS6000 (Hamamatsu) at final concentrations ranging from 0.08 nM to 5 μM. and were then incubated for 20 min at room temperature at which time LPA (Avanti Polar Lipids Cat #857130C) was added at final concentrations of 10 nM to stimulate the cells. […] IC50 values were determined by fitting data to a 4-parameter logistic equation (GraphPad Prism, San Diego Calif.).

[1] = CHO cells overexpressing human LPA1, inhibition of calcium flux induced by 10 nM LPA

T1 sequence (Q92633 whole entry): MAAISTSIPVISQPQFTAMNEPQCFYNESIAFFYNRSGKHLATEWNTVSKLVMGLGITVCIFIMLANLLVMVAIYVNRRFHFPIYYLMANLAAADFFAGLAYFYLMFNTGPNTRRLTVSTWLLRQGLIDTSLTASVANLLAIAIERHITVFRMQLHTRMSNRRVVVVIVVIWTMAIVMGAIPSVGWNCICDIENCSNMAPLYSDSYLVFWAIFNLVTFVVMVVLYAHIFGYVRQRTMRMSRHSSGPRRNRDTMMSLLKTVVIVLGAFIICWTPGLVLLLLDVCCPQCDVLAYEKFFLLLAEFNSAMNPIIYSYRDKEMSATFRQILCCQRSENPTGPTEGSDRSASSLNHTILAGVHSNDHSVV

SMILES | pIC50 | pIC50 [1]
Cc1noc(-c2ccc(O[C@H]3CCCC(C(=O)O)C3)cc2)c1CNC(=O)OCC1CC1C (mixture of isomers) [Example 14] | 7.01 | 
Cc1noc(-c2ccc(O[C@@H]3CCC[C@@H](C(=O)O)C3)cc2)c1CNC(=O)O[C@@H](C)c1ccccc1 (mixture of isomers) [Example 16] | 5.79 | 
Cc1noc(-c2ccc(O[C@@H]3CCC[C@@H](C(=O)O)C3)cc2)c1CNC(=O)O[C@H](C)c1ccccc1 (mixture of isomers) [Example 17] | 6.53 | 
CCC(C)COC(=O)NCc1c(C)noc1-c1ccc(O[C@@H]2CCC[C@@H](C(=O)O)C2)cc1 (mixture of isomers) [Example 25] | 7.02 | 
Cc1noc(-c2ccc(O[C@@H]3CCC[C@@H](C(=O)O)C3)cc2)c1CNC(=O)OC(C)C1CC1 (mixture of isomers) [Example 27] | 5.94 | 
Cc1noc(-c2ccc(O[C@@H]3CCC[C@@H](C(=O)O)C3)cc2)c1CNC(=O)OCc1cccc(F)c1 (racemic) [Example 21] | 6.59 | 
Cc1noc(-c2ccc(O[C@@H]3CCC[C@@H](C(=O)O)C3)cc2)c1CNC(=O)OCC(C)C (racemic) [Example 22] | 5.67 | 
CCCCOC(=O)NCc1c(C)noc1-c1ccc(O[C@@H]2CCC[C@@H](C(=O)O)C2)cc1 (racemic) [Example 23] | 6.50 | 
Cc1noc(-c2ccc(O[C@@H]3CCC[C@@H](C(=O)O)C3)cc2)c1CNC(=O)OCCC(C)C (racemic) [Example 24] | 7.20 | 
Cc1noc(-c2ccc(O[C@@H]3CCC[C@@H](C(=O)O)C3)cc2)c1CNC(=O)OCC(C)(C)C (racemic) [Example 26] | 6.48 | 
Cc1noc(-c2ccc(O[C@@H]3CCC[C@@H](C(=O)O)C3)cc2)c1CNC(=O)OCC1CCC1 (racemic) [Example 29] | 6.39 | 
Cc1noc(-c2ccc(O[C@H]3CCC[C@@H](C(=O)O)C3)cc2)c1NC(=O)O[C@H](C)C1CC1 (racemic) [Example 33] | 7.08 | 
Cc1noc(-c2cnc(O[C@H]3CCC[C@H](C(=O)O)C3)cn2)c1CNC(=O)OCc1ccccc1 (racemic) [Example 52, (±)-Trans-3-((5-(4-((((benzyloxy)carbonyl)amino)methyl)-3-methyl-isoxazol-5-yl)pyrazin-2-yl)oxy)cyclohexane-1-carboxylic Acid] | 6.95 | 
Cc1noc(-c2ccc(O[C@H]3CCC[C@H](C(=O)O)C3)cc2)c1NC(=O)O[C@H](C)C1CC1 (single isomer, unassigned) [Example 32] | 7.08 | 
Cc1noc(-c2ccc(O[C@H]3CCC[C@H](C(=O)O)C3)cn2)c1CNC(=O)OCc1ccccc1 (single isomer, unassigned) [Example 56] | 8.40 | 
Cc1noc(-c2ccc(O[C@@H]3CCC[C@@H](C(=O)O)C3)cn2)c1CNC(=O)OCc1ccccc1 (single isomer, unassigned) [Example 57] | 7.31 | 
Cc1noc(-c2ccc(O[C@H]3CCC[C@H](C(=O)O)C3)cn2)c1CNC(=O)OCc1ccc(F)cc1 [Example 1, (1S,3S)-3-((6-(4-(((((4-Fluorobenzyl)oxy)carbonyl)amino)methyl)-3-methylisoxazol-5-yl) Pyridin-3-yl)oxy)cyclohexanecarboxylic Acid] |  | 8.05
Cc1noc(-c2ccc(O[C@H]3CCC[C@H](C(=O)O)C3)cn2)c1CNC(=O)OCc1cccc(F)c1 [Example 3] |  | 8.30
Cc1noc(-c2ccc(O[C@H]3CCC[C@H](C(=O)O)C3)cn2)c1CNC(=O)OCc1cccc(Cl)c1 [Example 4] | 7.52 | 
Cc1cccc(COC(=O)NCc2c(C)noc2-c2ccc(O[C@H]3CCC[C@H](C(=O)O)C3)cn2)c1 [Example 5] | 7.60 | 
Cc1noc(-c2ccc(O[C@H]3CCC[C@H](C(=O)O)C3)cn2)c1CNC(=O)OCCC(C)(C)C [Example 6] | 8.15 | 
Cc1noc(-c2ccc(O[C@H]3CCC[C@H](C(=O)O)C3)cn2)c1CNC(=O)OCC1CCC1 [Example 7] | 7.80 | 
Cc1noc(-c2ccc(O[C@H]3CCC[C@H](C(=O)O)C3)cn2)c1CNC(=O)OCC1CC(C)(C)C1 [Example 8] | 8.26 | 
Cc1noc(-c2ccc(O[C@H]3CCC[C@H](C(=O)O)C3)cc2)c1CNC(=O)OCc1cccc(Cl)c1 [Example 11] | 6.71 | 

SMILES | pIC50 | pIC50 [1]
Cc1noc(-c2ccc(O[C@H]3CCC[C@H](C(=O)O)C3)cc2)c1CNC(=O)OCc1ccc(Cl)cc1 [Example 12] | 8.56 | 
Cc1noc(-c2ccc(O[C@H]3CCC[C@H](C(=O)O)C3)cc2)c1CN(C)C(=O)OCc1ccccc1 [Example 13] | 7.20 | 
Cc1noc(-c2ccc(O[C@@H]3CCC[C@@H](C(=O)O)C3)cc2)c1CNC(=O)OCc1ccc(F)cc1 [Example 18] | 6.80 | 
Cc1noc(-c2ccc(O[C@@H]3CCC[C@@H](C(=O)O)C3)cc2)c1CNC(=O)OCc1ccccc1F [Example 19] | 6.82 | 
Cc1noc(-c2ccc(O[C@@H]3CCC[C@@H](C(=O)O)C3)cc2)c1CNC(=O)OCc1ccccc1Cl [Example 20] | 6.61 | 
Cc1noc(-c2ccc(O[C@@H]3CCC[C@@H](C(=O)O)C3)cc2)c1CNC(=O)OCCC1CC1 [Example 28] | 6.58 | 
Cc1noc(-c2ccc(O[C@H]3CCC[C@H](C(=O)O)C3)cn2)c1NC(=O)O[C@H](C)C1CC1 [Example 34, (1S,3S)-3-((6-(4-((((R)-1-cyclopropylethoxy)carbonyl)amino)-3-methylisoxazol-5-yl)pyridin-3-yl)oxy)cyclohexane-1-carboxylic Acid] | 7.52 | 
Cc1noc(-c2ccc(O[C@H]3CCC[C@H](C(=O)O)C3)cn2)c1CNC(=O)NCc1ccccc1 [Example 35, (1S,3S)-3-((6-(4-((3-benzylureido)methyl)-3-methylisoxazol-5-yl)pyridin-3-yl)oxy)cyclohexane-1-carboxylic Acid] | 6.64 | 
CCCCCCOC(=O)NCc1c(C)noc1-c1ccc(O[C@H]2CCC[C@H](C(=O)O)C2)cn1 [Example 36, (1S,3S)-3-((6-(4-((((hexyloxy)carbonyl)amino)methyl)-3-methylisoxazol-5-yl)pyridin-3-yl)oxy)cyclohexane-1-carboxylic Acid] | 7.34 | 
Cc1noc(-c2ccc(O[C@H]3CCC[C@H](C(=O)O)C3)cn2)c1CNC(=O)OCc1cc(F)cc(F)c1 [Example 37, (1S,3S)-3-((6-(4-(((((3,5-difluorobenzyl)oxy)carbonyl)amino)methyl)-3-methylisoxazol-5-yl)pyridin-3-yl)oxy)cyclohexane-1-carboxylic Acid] |  | 7.57
Cc1noc(-c2ccc(O[C@H]3CCC[C@H](C(=O)O)C3)cn2)c1CNC(=O)OC1CCCC1 [Example 38] | 7.20 | 
Cc1nc(-c2onc(C)c2CNC(=O)OCC(C)C)ccc1O[C@H]1CCC[C@H](C(=O)O)C1 [Example 39] | 7.43 | 
Cc1nc(-c2onc(C)c2CN(C)C(=O)OCC(C)C)ccc1O[C@H]1CCC[C@H](C(=O)O)C1 [Example 40] | 7.47 | 
CCCOC(=O)NCc1c(C)noc1-c1ccc(O[C@H]2CCC[C@H](C(=O)O)C2)c(C)n1 [Example 41] | 7.70 | 
CCCCOC(=O)NCc1c(C)noc1-c1ccc(O[C@H]2CCC[C@H](C(=O)O)C2)c(C)n1 [Example 42] | 8.10 | 
CCCCCOC(=O)NCc1c(C)noc1-c1ccc(O[C@H]2CCC[C@H](C(=O)O)C2)c(C)n1 [Example 43] | 8.10 | 
CCCCCCOC(=O)NCc1c(C)noc1-c1ccc(O[C@H]2CCC[C@H](C(=O)O)C2)c(C)n1 [Example 44] | 8.22 | 
COCCOC(=O)NCc1c(C)noc1-c1ccc(O[C@H]2CCC[C@H](C(=O)O)C2)c(C)n1 [Example 46] | 6.56 | 
Cc1nc(-c2onc(C)c2CNC(=O)OC(C)C)ccc1O[C@H]1CCC[C@H](C(=O)O)C1 [Example 47] | 7.52 | 
Cc1nc(-c2onc(C)c2CNC(=O)OCc2ccccc2)ccc1O[C@H]1CCC[C@H](C(=O)O)C1 [Example 48] | 8.30 | 
Cc1nc(-c2onc(C)c2CN(C)C(=O)OCc2ccccc2)ccc1O[C@H]1CCC[C@H](C(=O)O)C1 [Example 49, (1S,3S)-3-((6-(4-((((Benzyloxy)carbonyl)(methyl)amino)methyl)-3-methyl-isoxazol-5-yl)-2-methylpyridin-3-yl)oxy)cyclohexanecarboxylic Acid] | 8.22 | 
Cc1nc(-c2onc(C)c2CNC(=O)OC(C)(C)C)ccc1O[C@H]1CCC[C@H](C(=O)O)C1 [Example 50, (1S,3S)-3-((6-(4-(((tert-butoxycarbonyl)amino)methyl)-3-methylisoxazol-5-yl)-2-methylpyridin-3-yl)oxy)cyclohexane-1-carboxylic Acid] | 7.36 | 
Cc1nc(-c2onc(C)c2CNS(=O)(=O)Cc2ccccc2)ccc1O[C@H]1CCC[C@H](C(=O)O)C1 [Example 51, (1S,3S)-3-((2-methyl-6-(3-methyl-4-(((phenylmethyl)sulfonamido)methyl) Isoxazol-5-yl)pyridin-3-yl)oxy)cyclohexane-1-carboxylic Acid] |  | 6.21
Cc1noc(-c2ccc(O[C@H]3CCC[C@H](C(=O)O)C3)cn2)c1CNS(=O)(=O)CCc1ccccc1 [Example 53, (1S,3S)-3-((6-(3-methyl-4-(((2-phenylethyl)sulfonamido)methyl)isoxazol-5-yl) Pyridin-3-yl)oxy)cyclohexane-1-carboxylic Acid] |  | 8.40
